Measurements reported in patent publication US4263430A, “2-Methyl-5-(2-hydroxystyryl)-1,3,4-thiadiazole” (BASF Aktiengesellschaft, priority 1978, dated 1981).

How the values were obtained:
cardiac beta-1-receptors [1] = molecular target: T1, cardiac beta-1-receptors (Felis catus, UniProt Q9TST6); assay: Beta-sympatholytic action: inhibition of isoproterenol-induced tachycardia in narcotized cats; format: in vivo; conditions: for ED50: cat, iv, read-out: Beta-sympatholytic action ED50%: dose which inhibits the isoproterenol-induced tachycardia by 50%; for R.A. (relative activity) / factor by which doses blocking the cardiac beta-1-receptors are smaller than those of propranolol: cats; for R.A. (relative activity): Propranolol = 1.00; for factor by which doses blocking the cardiac beta-1-receptors are smaller than those of propranolol: versus propranolol
T1 construct: increases the pulse rate of narcotized cats (weighing 2-4 kg) by an average of 40%; from tissue; host or cells: heart of living narcotized cats (in vivo, endogenous receptor)
T1 sequence (Q9TST6 whole entry): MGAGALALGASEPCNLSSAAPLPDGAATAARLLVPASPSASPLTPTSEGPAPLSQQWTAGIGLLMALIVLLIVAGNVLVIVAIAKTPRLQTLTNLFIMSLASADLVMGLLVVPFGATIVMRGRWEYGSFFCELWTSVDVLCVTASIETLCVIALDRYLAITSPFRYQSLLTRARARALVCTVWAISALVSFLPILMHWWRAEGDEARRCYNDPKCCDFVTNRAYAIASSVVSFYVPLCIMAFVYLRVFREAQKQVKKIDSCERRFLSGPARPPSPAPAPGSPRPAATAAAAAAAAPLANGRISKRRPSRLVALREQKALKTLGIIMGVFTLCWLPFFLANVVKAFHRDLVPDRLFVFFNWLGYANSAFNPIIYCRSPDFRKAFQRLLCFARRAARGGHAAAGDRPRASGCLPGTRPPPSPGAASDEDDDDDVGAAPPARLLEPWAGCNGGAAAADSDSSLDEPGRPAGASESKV
Description: The beta-sympatholytic action of the compounds was tested on cats. […] The following test methods were used:
Beta-sympatholytic agents inhibit the tachycardia.
^1 Inhibition of isoproterenolinduced tachycardia in cats under
hexobarbital narcosis. Compound administered intravenously.

cardiac beta-1-receptors [2] = conditions: mouse, in vivo
in vivo = conditions: mouse, read-out: Acute toxicity LD50

| SMILES | ED50 (cardiac beta-1-receptors [1]) [mg/kg] | R.A. (relative activity) (cardiac beta-1-receptors [1]) | Therapeutic range relative (cardiac beta-1-receptors [2]) | LD50 (in vivo) [mg/kg] | factor by which doses blocking the cardiac beta-1-receptors are smaller than those of propranolol (cardiac beta-1-receptors [1]) |
| --- | --- | --- | --- | --- | --- |
| Cc1nnc(/C=C/c2ccccc2OCC(O)CNC(C)C)s1 (stereo not shown) [Compound 3, 2-Methyl-5-[2-(2-hydroxy-3-isopropylamino-propoxy)-styryl]-1,3,4-thiadiazol] | 0.01 | 14.10 | 10.84 | 83 | – |
| Cc1nnc(/C=C/c2ccccc2OCC(O)CNC2CC2)s1 (stereo not shown) [Compound 4, 2-Methyl-5-[2-(2-hydroxy-3-cyclopropylamino-propoxy)-styryl]-1,3,4-thiadiazole] | 0.012 | 11.75 | 7.55 | 69.4 | 12 |
| Cc1nnc(/C=C/c2ccccc2OCC(O)CNC(C)(C)C)s1 (stereo not shown) [Compound 5, 2-Methyl-5-[2-(2-hydroxy-3-tert.-butylamino-propoxy)-styryl]-1,3,4-thiadiazole] | – | 25.22 | 13.73 | – | 25 |
| C#CC(C)NCC(O)COc1ccccc1/C=C/c1nnc(C)s1 (stereo not shown) [Compound 6, 2-Methyl-5-[2-(2-hydroxy-3-(1-butyn-3-ylamino)-propoxy)styryl]-1,3,4-thiadiazole] | 0.0111 | 12.70 | 30.68 | 261 | – |
